In patent US20240425478A1, “CYCLOPENTYLPYRAZOLE CDK2 INHIBITORS” (Genentech, Inc., priority 2021, published 2024):
Like-named read-outs stand apart in the source and are kept apart here. Each block holds one compound with its values, some of them ahead of it.

How the values were obtained:
[1] = target: T1, Cyclin Dependent Kinase 1/Cyclin A2 (CDK1-cycA2) (Homo sapiens, UniProt P06493); assay: CDK1-cycA2 TR-FRET (Lance) enzyme assay; format: biochemical; conditions: for Ki: Table O, enzymatic assay; for FS CDK1/CDK2: fold selectivity, enzymatic Ki ratio
T1 construct: purchased ProQinase 0134-0054-1
T1 sequence (P06493 whole entry): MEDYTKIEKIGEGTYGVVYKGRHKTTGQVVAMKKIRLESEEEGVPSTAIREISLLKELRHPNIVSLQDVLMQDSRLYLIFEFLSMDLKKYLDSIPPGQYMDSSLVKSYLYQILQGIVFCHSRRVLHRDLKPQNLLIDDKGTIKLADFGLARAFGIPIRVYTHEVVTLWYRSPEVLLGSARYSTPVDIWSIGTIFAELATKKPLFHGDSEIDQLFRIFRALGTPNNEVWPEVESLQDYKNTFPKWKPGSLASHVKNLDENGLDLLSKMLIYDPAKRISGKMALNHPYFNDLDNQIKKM
T1 sequence (P20248 whole entry partner): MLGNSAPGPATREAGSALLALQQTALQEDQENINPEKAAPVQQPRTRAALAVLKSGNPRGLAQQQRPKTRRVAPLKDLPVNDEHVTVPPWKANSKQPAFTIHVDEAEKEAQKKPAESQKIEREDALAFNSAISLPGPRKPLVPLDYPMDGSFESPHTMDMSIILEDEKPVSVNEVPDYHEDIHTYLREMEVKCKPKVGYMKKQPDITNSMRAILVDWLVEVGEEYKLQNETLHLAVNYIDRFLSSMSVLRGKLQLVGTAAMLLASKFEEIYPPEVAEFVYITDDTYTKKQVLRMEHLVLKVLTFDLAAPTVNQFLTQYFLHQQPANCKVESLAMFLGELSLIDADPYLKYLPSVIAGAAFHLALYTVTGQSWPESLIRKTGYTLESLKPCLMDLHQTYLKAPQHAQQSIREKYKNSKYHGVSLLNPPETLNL
Outline: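 Human CDK1/cyclin A2 pre-incubated 30 min with compound dose responses in 50 mM HEPES pH 7.5, 10 mM MgCl2, 2 mM TCEP, 0.05% BGG, 0.01% Brij 35. Reaction quenched with EDTA (15 mM final); TR-FRET readout using Eu-anti-phospho-4E-BP1, acceptor/donor ratio. Inhibition constants from Morrison equation.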

[2] = target: T2, Cyclin Dependent Kinase 2/Cyclin E1 (CDK2-cycE1) (Homo sapiens, UniProt P24941); assay: CDK2-cycE1 TR-FRET (LANCE) enzyme assay; format: biochemical; conditions: for FS CDK1/CDK2 / FS CDK4/CDK2: fold selectivity; for increased fold-selectivity CDK4/CDK2 over Comparator C: (+) sign after FS CDK4/CDK2;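 for improvement in potency against CDK2 (Ki) over Comparator C: fold lower CDK2 Ki than comparator c (Ki 0.032 µM)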
T2 construct: purchased ProQinase 0050-0055-1
Outline: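 Compound dose responses pre-incubated 30 min with CDK2-cycE1 in 50 mM HEPES pH 7.5, 10 mM MgCl2, 2 mM TCEP, 0.05% BGG, 0.01% Brij 35. Reaction quenched with EDTA (15 mM final), phospho-MBP detected by Eu-anti-phospho-MBP TR-FRET (acceptor/donor ratio). Inhibition constants from Morrison equation.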

[3] = target: T3, Cyclin Dependent Kinase 4/Cyclin D3 (CDK4-cycD3) (Homo sapiens, UniProt P11802); assay: CDK4-cycD3 TR-FRET (LANCE) enzyme assay; format: biochemical; conditions: for Ki: Table O, enzymatic assay; for FS CDK4/CDK2: fold selectivity, enzymatic Ki ratio
T3 construct: purchased Carna Biosciences 04-105
T3 sequence (P11802 whole entry): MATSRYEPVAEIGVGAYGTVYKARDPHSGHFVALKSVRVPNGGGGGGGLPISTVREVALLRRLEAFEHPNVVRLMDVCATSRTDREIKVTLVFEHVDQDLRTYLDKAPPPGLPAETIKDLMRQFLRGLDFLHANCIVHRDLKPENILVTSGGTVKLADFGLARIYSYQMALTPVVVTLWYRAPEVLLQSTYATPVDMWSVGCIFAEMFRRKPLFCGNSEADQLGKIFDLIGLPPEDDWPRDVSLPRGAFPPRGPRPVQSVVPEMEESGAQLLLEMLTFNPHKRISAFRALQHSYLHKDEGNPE
T3 sequence (P30281 whole entry partner): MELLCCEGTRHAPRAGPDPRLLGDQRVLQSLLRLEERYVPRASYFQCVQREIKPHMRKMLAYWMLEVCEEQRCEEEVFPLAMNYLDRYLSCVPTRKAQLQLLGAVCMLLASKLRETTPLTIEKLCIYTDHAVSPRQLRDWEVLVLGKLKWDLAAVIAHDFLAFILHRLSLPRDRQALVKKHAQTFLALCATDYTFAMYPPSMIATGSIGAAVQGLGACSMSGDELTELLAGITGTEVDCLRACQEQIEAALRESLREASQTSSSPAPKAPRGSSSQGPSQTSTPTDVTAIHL
Outline: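 Compound dose responses pre-incubated 30 min with enzyme mix in 50 mM HEPES pH 7.5, 10 mM MgCl2, 2 mM TCEP, 0.05% BGG, 0.01% Brij 35. Reaction quenched with EDTA (15 mM final); Eu-anti-phospho-4E-BP1 TR-FRET detection, acceptor/donor ratio. Ki derived by Morrison equation.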

[4] = system: OVISE (JCRB1043, CCNE1-amplified); assay: OVISE EdU incorporation cell proliferation assay (CDK2-dependent); format: cell-based; conditions: for IC50: cellular assay, read-out: CDK2 OVISE IC50; for FS SKOV-3/OVISE / FS p-H3/OVISE: fold selectivity; for FS p-H3/OVISE: cellular p-H3 IC50 over OVISE IC50; for CDK2 OVISE IC50 fold change in potency versus Comparator D: Table R; for CDK2 OVISE IC50 fold change in potency versus Comparator D / CDK2 OVISE IC50 fold change in potency versus Comparator E / improvement in CDK2 OVISE cell potency over Comparator C: in brackets after OVISE IC50; for CDK2 OVISE IC50 fold change in potency versus Comparator E: Table S; for increased fold-selectivity SKOV-3/OVISE over Comparator C: (+) sign after FS SKOV-3/OVISE; for improvement in CDK2 OVISE cell potency over Comparator C: Comparator C 5.5 μM
Outline: (§1)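 Cells in RPMI/10% FBS dosed with compound (0.5% DMSO final) for 16 h at 37 °C, 5% CO2, then EdU 0.5 μM final for 8 h before fixation and imaging. IC50 from 4-parameter logistic fit of EdU-positive cell fraction versus dose.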

[5] = system: SKOV-3 (ATCC HTB-77); assay: SKOV-3 EdU incorporation cell proliferation assay (CDK4/6-dependent); format: cell-based; conditions: for IC50: Homo sapiens, cellular assay, read-out: CDK4/6 SKOV-3 IC50; for selectivity for CDK2 over CDK4 compared with Comparator E: SKOV-3/OVISE fold-selectivity cellular assay data; for FS SKOV-3/OVISE: fold selectivity, cellular IC50 ratio
Outline: as §1

[6] = system: HCT116 cells; assay: p-H3 HCT-116 mitotic release cell proliferation assay (cellular CDK1); format: cell-based; conditions: Homo sapiens, HCT-116; Table O, cellular assay; read-out: CDK1 p-H3 IC50
Description: Inhibition of cellular CDK1 determined by release of cells from nocodazole-induced mitotic arrest, as measured by decrease in phospho-Histone H3. Histone H3 (Ser 10) level is detected in cell lysates by producing a Fluorescence Resonance Energy Transfer (FRET) signal between two antibodies, Phospho-Histone H3 Cryptate (acting as the donor) and Phospho-Histone H3 d2 (acting as the acceptor).
Plates are allowed to rest overnight at 37° C./5% CO2. The following morning, nocodazole is diluted in complete medium, and 5 μL is added to each test well and positive control well for a final concentration of 500 nM. Plates are then incubated for 16 hours at 37° C./5% CO2. […] 10 μL of diluted compound is then transferred to the cell plate (final DMSO concentration 0.1%). Cell plates are then incubated for 4 hours in 37° C. 5% CO2. A cell lysis buffer is prepared on ice using reagents from the Phospho-Histone H3 (Ser10) cellular kit (Cisbio-64HH3PEG). Supernatant is discarded from the cell plate and 80 μL of the supplemented cell lysis buffer (1:99 dilution of the Blocking Reagent and the 1× cell lysis buffer provided in the kit) is added to each of the experimental wells. The cell lysis reaction is allowed to proceed at room temperature while shaking vigorously for 30 minutes. The 384-well HTRF (Homogeneous Time Resolved Fluorescence) plate is prepared by adding 2 μL of each diluted antibody (Phospho-Histone H3 Cryptate antibody and Phospho-Histone H3 d2 antibody diluted 19:1 in a detection buffer) and 12 μL of the supplemented cell lysis buffer to each well in the HTRF plate. 4 μL of the cell lysate is added to the prepared HTRF plate which is then sealed and the reaction is allowed to proceed for a minimum of 2 hours at room temperature.

[7] = Table O, enzymatic assay, read-out: CDK2 Ki
[8] = Table O, enzymatic CDK1 Ki over CDK2 Ki
[9] = Table O, enzymatic CDK4 Ki over CDK2 Ki
[10] = Table R, enzymatic assay, read-out: CDK2 Ki
[11] = Table R, in brackets after CDK2 Ki
[12] = Table S, enzymatic assay, read-out: CDK2 Ki
[13] = Table S, in brackets after CDK2 Ki
[14] = Table O, cellular SKOV-3 IC50 over OVISE IC50
[15] = Table Q, enzymatic assay, read-out: CDK2 Ki

Compound: Cn1cc(Nc2cc([C@H]3CC[C@@H](OC(=O)NC(C)(C)C)C3)[nH]n2)ccc1=O [Example 1, (1R,3S)-3-(3-((1-methyl-6-oxo-1,6-dihydropyridin-3-yl)amino)-1H-pyrazol-5-yl)cyclopentyl tert-butylcarbamate]
Ki [1]: 0.27 µM
FS CDK1/CDK2 increased over Comparator D, (+) sign ([1]; Table R): (+)
FS CDK1/CDK2 ([1]; Table R): 36
FS CDK1/CDK2 ([1]; Table S): 36
Ki [2, 7]: 0.0076 µM
FS CDK1/CDK2 [2, 8]: 36
FS CDK4/CDK2 [2, 9]: 92
Ki [2, 10]: 0.0076 µM
CDK2 Ki fold change in potency versus Comparator D [2, 11]: 0.4 fold
Ki [2, 12]: 0.0076 µM
CDK2 Ki fold change in potency versus Comparator E [2, 13]: 0.1 fold
Ki [3]: 0.7 µM
FS CDK4/CDK2 increased over Comparator D, (+) sign ([3]; Table R): (+)
FS CDK4/CDK2 ([3]; Table R): 92
FS CDK4/CDK2 increased over Comparator E, (+) sign ([3]; Table S): (+)
FS CDK4/CDK2 ([3]; Table S): 92
IC50 ([4]; Table O): 0.22 µM
FS SKOV-3/OVISE [4, 14]: >91
FS p-H3/OVISE ([4]; Table O): 0.45
CDK2 OVISE IC50 fold change in potency versus Comparator D [4]: 17 fold
CDK2 OVISE IC50 fold change in potency versus Comparator E [4]: 0.8 fold
IC50 ([5]; SK-OV-3, Table O): > 20 µM
IC50 ([5]; SK-OV-3, Table R): > 20 µM
IC50 ([5]; SK-OV-3, Table S): > 20 µM
selectivity for CDK2 over CDK4 compared with Comparator E [5]: increase in selectivity for CDK2 over CDK4
FS SKOV-3/OVISE increased over Comparator D, (+) sign ([5]; Table R): (+)
FS SKOV-3/OVISE ([5]; Table R): > 91
FS SKOV-3/OVISE increased over Comparator E, (+) sign ([5]; Table S): (+)
FS SKOV-3/OVISE ([5]; Table S): > 91
IC50 [6]: 0.1 µM

Ki [1]: 0.016 µM
Ki [2, 7]: 0.00044 µM
FS CDK1/CDK2 [2, 8]: 36
FS CDK4/CDK2 [2, 9]: 550
Ki [2, 15]: 0.00044 µM
FS CDK1/CDK2 ([2]; Table Q, enzymatic): 36
FS CDK4/CDK2 ([2]; Table Q, enzymatic): 550
improvement in potency against CDK2 (Ki) over Comparator C ([2]; Table Q, in brackets after CDK2 Ki, Comparator C 0.032 μM): 73 fold
Ki ([2]; read-out: CDK2 activity / potency (enzymatic assay)): ≤ 0.001 µM
Ki [3]: 0.24 µM
IC50 ([5]; SK-OV-3, Table O): 11 µM
IC50 ([5]; SK-OV-3, Table Q): 11 µM
IC50 [6]: 0.19 µM
Compound: CC(C)NC(=O)O[C@@H]1CC[C@H](c2cc(Nc3ccc(=O)n(C)n3)n[nH]2)C1 [Example 2, (1R,3S)-3-(3-((1-methyl-6-oxo-1,6-dihydropyridazin-3-yl)amino)-1H-pyrazol-5-yl)cyclopentyl isopropylcarbamate]
increased fold-selectivity CDK4/CDK2 over Comparator C ([2]; Table Q): (+) (The (+) sign in Table Q signifies desirable increased fold-selectivity of the exemplary compounds over Comparator C)
IC50 ([4]; Table O): 0.093 µM
FS SKOV-3/OVISE [4, 14]: 120
FS p-H3/OVISE ([4]; Table O): 1.9
increased fold-selectivity SKOV-3/OVISE over Comparator C ([4]; Table Q): (+) (The (+) sign in Table Q signifies desirable increased fold-selectivity of the exemplary compounds over Comparator C)
FS SKOV-3/OVISE ([4]; Table Q, cellular): 120
improvement in CDK2 OVISE cell potency over Comparator C ([4]; Table Q): 59 fold

Compound: CC(C)NC(=O)O[C@@H]1CC[C@H](c2cc(Nc3cccnc3)n[nH]2)C1 [Example 2A, (1R,3S)-3-(3-(pyridin-3-ylamino)-1H-pyrazol-5-yl)cyclopentyl isopropylcarbamate]
Ki [1]: 0.071 µM
FS CDK1/CDK2 increased over Comparator D, (+) sign ([1]; Table R): (+)
FS CDK1/CDK2 ([1]; Table R): 42
FS CDK1/CDK2 ([1]; Table S): 42
improvement in potency against CDK2 (Ki) over Comparator C [2]: 19 fold
Ki [2, 7]: 0.0017 µM
FS CDK1/CDK2 [2, 8]: 42
FS CDK4/CDK2 [2, 9]: 44
increased fold-selectivity CDK1/CDK2 over Comparator C ([2]; Table Q, (+) sign after FS CDK1/CDK2): (+) (The (+) sign in Table Q signifies desirable increased fold-selectivity of the exemplary compounds over Comparator C)
increased fold-selectivity CDK4/CDK2 over Comparator C ([2]; Table Q): (+) (The (+) sign in Table Q signifies desirable increased fold-selectivity of the exemplary compounds over Comparator C)
Ki [2, 15]: 0.0017 µM
FS CDK1/CDK2 ([2]; Table Q, enzymatic): 42
FS CDK4/CDK2 ([2]; Table Q, enzymatic): 44
Ki [2, 10]: 0.0017 µM
CDK2 Ki fold change in potency versus Comparator D [2, 11]: 1.6 fold
Ki [2, 12]: 0.0017 µM
CDK2 Ki fold change in potency versus Comparator E [2, 13]: 0.3 fold
Ki [3]: 0.075 µM
FS CDK4/CDK2 increased over Comparator D, (+) sign ([3]; Table R): (+)
FS CDK4/CDK2 ([3]; Table R): 44
FS CDK4/CDK2 ([3]; Table S): 44
CDK2 cell potency compared with Comparator E ([4]; CDK2 OVISE cellular assay data): more potent CDK2 cell inhibitors compared to Comparator E
IC50 ([4]; Table O): 0.11 µM
FS SKOV-3/OVISE [4, 14]: 20
FS p-H3/OVISE ([4]; Table O): 0.66
increased fold-selectivity SKOV-3/OVISE over Comparator C ([4]; Table Q): (+) (The (+) sign in Table Q signifies desirable increased fold-selectivity of the exemplary compounds over Comparator C)
FS SKOV-3/OVISE ([4]; Table Q, cellular): 20
improvement in CDK2 OVISE cell potency over Comparator C ([4]; Table Q): 50 fold
CDK2 OVISE IC50 fold change in potency versus Comparator D [4]: 35 fold
CDK2 OVISE IC50 fold change in potency versus Comparator E [4]: 1.5 fold
IC50 ([5]; SK-OV-3, Table O): 2.2 µM
IC50 ([5]; SK-OV-3, Table Q): 2.2 µM
IC50 ([5]; SK-OV-3, Table R): 2.2 µM
IC50 ([5]; SK-OV-3, Table S): 2.2 µM
selectivity for CDK2 over CDK4 compared with Comparator E [5]: increase in selectivity for CDK2 over CDK4
FS SKOV-3/OVISE increased over Comparator D, (+) sign ([5]; Table R): (+)
FS SKOV-3/OVISE ([5]; Table R): 20
FS SKOV-3/OVISE increased over Comparator E, (+) sign ([5]; Table S): (+)
FS SKOV-3/OVISE ([5]; Table S): 20
IC50 [6]: 0.094 µM
